One assay concerns A549 cancer cells. The experiment in a line: A549 NSCL xenograft model, combination with 2DG. The class given is in vivo, mice. As to conditions: 2DG 300 mg/kg, Example 36 2 mg/kg, i.p. daily (6 times per week); Example 36 alone p<0.05 at day 24 and 27; combination p<0.05 at day 13-27; FIG. 7. The text has this: Because the compounds of the invention may be more toxic to cancer cells deprived of glucose or treated with 2DG in vitro, the combination of 2DG with such compounds should have increased anti-tumor efficacy in vivo as compared with either agent alone. Accordingly, the effect of a combination therapy of the compound of Example 36 and 2DG using A549 NSCL xenograft model was examined.
Female athymic nude mice (nu/nu) (4-6 weeks old) were inoculated (s.c.) with 5×10^6 A549 cancer cells in PBS on the flanking site. After the tumors reached an average size ˜100 mm^3, the animals were divided into four treatment groups—0.9% NaCl (control), 2DG at 300 mg/kg, the compound of Example 36 at 2 mg/kg, and a combination of 2DG (300 mg/kg) and the compound of Example 36 (2 mg/kg). All the treatments were delivered by intraperitoneal injection daily (6 times per week). Tumor size and body weight were measured twice per week. Tumor volume was calculated using the formula TV=length×width×width/2.

Assay [1] relates to Panc-1, HCT-116, Pc3M/N, HEPG2, ASPC1, or H460 cells. The assay can be described thus: Reduction of viable cell growth in glucose deprived media (liquid culture, alamarBlue). The conditions noted are these: concentration giving at least 50% reduction of viable cell growth. The format is cell-based.
For assay [2], the system named is Lewis lung cancer cells. The experiment in a line: Mouse LLC model, combination with 2DG. The conditions noted are these: Example 36 2 mg/kg, 2DG 300 mg/kg, i.p. 6 times per week; p<0.05; FIG. 8. The class given is in vivo, mice. The method, then:
(§1) More specifically, female C57BL mice (4-6 weeks old) were inoculated (s.c.) with 5×10^5 Lewis lung cancer cells in PBS on the flanking site. Animals were randomly divided into treatment and control groups (n=8) based on tumor size when average tumor size reached 100 mm^3. Animals in the treatment groups received the compound of Example 36 daily at 2 mg/kg and 2DG at 300 mg/kg via intraperitoneal dosing, 6 times per week respectively. Tumor size and body weight were measured twice per week. Tumor volume was calculated using the formula TV=length×width×width/2.

Assay [3] deals with Lewis lung cancer cells. The experiment in a line: Mouse Lewis lung cancer (LLC) xenograft model. The format is in vivo, mice. The conditions noted are these: 2 mg/kg intraperitoneal, 6 times per week; day 15; p<0.05; FIG. 6. The method, then: as §1, with “Using the mouse Lewis lung cancer (LLC) xenograft model, female” for “More specifically, female”, “treatment group” for “treatment groups”, “36 (also designated IMS2143) or the compound of Example 47” for “36”, “2” for “2 mg/kg and 2DG at 300”, “respectively. The control group was injected with 0.9% NaCl.” for “respectively.”

The term EC50 denotes the concentration giving half of the maximal effect. High values mean a less potent agent, low ones a more potent agent. For `CCCCOc1ccc(/C=C/c2ccc3cc(N(C)C)ccc3[n+]2C)cc1.O=S(=O)([O-])C(F)(F)F` [Example 36], the A549 tumor growth result in the assay on A549 cancer cells is recorded as “significantly inhibited tumor growth”. In assay [1], this compound showed an EC50 of less than 1000 nM. Also, the “LLC tumor growth as compared with 2DG alone or control” value in the assay on Lewis lung cancer cells [2] is recorded as “significantly inhibited tumor growth”. Further, the LLC tumor growth entry with Lewis lung cancer cells [3] is on record as “significantly suppressed tumor growth”.

For the origin of these results see patent US20080281105A1, “Novel Quinolinium Salts and Derivatives” (IMMUSOL INCORPORATED, priority 2005, published 2008).
